Measurements: article PMC9225785, “Design, synthesis, and biological evaluation of a novel series of 2-(2,6-dioxopiperidin-3-yl)isoquinoline-1,3(2H,4H)-dione derivatives as cereblon modulators” (Journal of Enzyme Inhibition and Medicinal Chemistry, 2022)
Read-outs that look alike come from different tables or passages of the source.

Columns and labels:
TNF-α = TNF-α ELISA assay in LPS stimulated PBMC; format: cell-based, human; settings: read-out: IC50 (μM ± SD) TNF-α
Experimental: Previous studies have reported IMiDs stimulate immunomodulatory activity main through the TNF-α inhibition[9]^,[10]. In this test, the effect of the synthesised compounds on TNF-α in LPS stimulated human peripheral blood mononuclear cell (PBMC) was evaluated (Table 1). The SAR of TNF-α inhibition was similar to the antiproliferative activity. […]
PBMC (4 × 10^5 cells) were incubated in the 96-well culture plate and stimulated by 2 µg/mL LPS. The level of TNF-α was checked by standard ELISA (R&D Systems, Minneapolis, MN). Analysis was performed by following the manufacture’s procedure for each ELISA kit. The test samples were assessed in triplicate and absorbance was taken on a Microplate Reader (ELx-800, BioTek Instruments, Winooski, VT) at 450 nm. The IC50 value for each compound was calculated by comparison with standard curves with purified recombinant TNF-α using GraphPad Prism 5.0 software (San Diego, CA).

PBMC toxicity by CCK8 = format: cell-based, human; settings: human, PBMCs isolated from healthy donors, CCK-8, 20.0 µM, relative to control cells; read-out: PBMC cell viability (%)
Experimental: (§1) And same time, the toxicity of the compounds on the normal human cell line PBMC was also tested by CCK8.
(§2) The NCI-H929 cells were cultured in RPMI-1640 media supplemented with 10% FBS, 100 U/mL penicillin–100 µg/mL streptomycin, and 0.05 mM 2-mercaptoethanol. The U2932 cells were cultured in RPMI-1640 media supplemented with 10% FBS and 100 U/mL penicillin–100 µg/mL streptomycin. The PBMCs were isolated from healthy donors.
(§3) For the cell proliferation experiments, 1.0 × 10^5 cells were first seeded in the 96-well culture plate and incubated overnight. Compounds tested were serially diluted in the corresponding media and then added to the well of 96-well plate in a final volume of 100 µL and then the cells were incubated for 72 h at 37 °C. Finally, 10 µL of CCK-8 was added to each well for 1–4 h, and the absorbance values were read at 450 nm in a Microplate Reader (ELx-800, BioTek Instruments, Winooski, VT). The IC50 value for each compound was calculated at the basis of the number of viable cells using GraphPad Prism 5.0 software (San Diego, CA).

U2932 cells = assay: CCK8 antiproliferative assay, U2932; settings: Homo sapiens, U2932, 72 h, read-out: IC50 (μM ± SD) U2932
NCI-H929 cells [1] = assay: CCK8 antiproliferative assay, NCI-H929; settings: Homo sapiens, NCI-H929, 72 h, read-out: IC50 (μM ± SD) NCI-H929
NCI-H929 cells [2] = assay: Cell cycle analysis (PI staining, flow cytometry); format: cell-based; settings: 48 h; for cell cycle arrest: NCI-H929, 0.5-5.0 µM
Experimental: The NCI-H929 cells were treated with each of the compounds at 0, 0.5, 1.0, and 5.0 µM for 48 h. Following this treatment, the PI-stained cells were analysed and the results are outlined in Figure 5.
(§4) Flow cytometry was used to analyse effects of the compounds tested on cell cycle (PI staining) and apoptosis (Annexin V-FITC and PI staining). Stained cells were analysed on a Flow Cytometer (BD Biosciences, Franklin Lakes, NJ), and the data were analysed using the Cell Quest software.

PBMC = PBMC toxicity by CCK8; format: cell-based, human
Experimental: as §1, §2, §3

IKZF3 = target: T1, IKZF3 (Homo sapiens, UniProt Q96SW2+Q9UKT9); assay: Immunoblot analysis of IKZF3 degradation in NCI-H929 cells; format: cell-based; settings: for IKZF3 degradation: 72 h, immunoblot
T1 construct: endogenous in cells; host or cells: NCI-H929
Experimental: (§5) Subsequent proteasome degradation of these transcription factors kills MM cells. Accordingly, we used the immunoblot assay to measure the IKZF1 and IKZF3 proteins degradation in the current study.
(§6) For immunoblot analysis, NCI-H929 cells were treated with the tested compounds at the indicated concentrations for various times, collected, and lysed in RIPA buffer in the presence of protease inhibitors on ice for 30 min. The protein from each sample was quantitated using a BCA protein assay kit, and was separated by SDS-PAGE and then transferred onto the PVDF membrane. The membranes were probed with specific primary antibodies at 4 °C overnight, followed by incubation with IRDye®680 goat anti-mouse secondary antibodies. The signals were acquired using the Odyssey Infrared Imaging System (LI-COR, Lincoln, NE).

[3] = target: T2, CRBN (His-tagged CRBN-DDB1 complex) (Homo sapiens, UniProt Q96SW2); assay: TR-FRET CRBN binding assay (displacement of Cy5-labeled thalidomide)
T2 construct: purchased Abcam ab235611
Experimental: His-tagged CRBN-DDB1 complex (Abcam, Cambridge, UK, catalogue no. ab235611) 60 nM was mixed with Eu-anti-His Tag antibody 3 nM (Thermo Fisher, Waltham, MA, catalogue no. PV5596) in a final buffer containing 20 mM HEPES pH 7.0, 150 mM NaCl, and 0.005% Tween-20. The solution was then mixed with Cy5-labeled thalidomide 10 nM and various concentrations of compounds, and then was incubated at room temperature for 1 h. FRET signals were measured on an EnVision plate reader by exciting at 340 nm and recording emission at both 615 nm (no FRET control) and 665 nm (FRET signals) with a 60 µs delay. […] Quantitative loss of FRET efficiency as a function of compound concentrations was fitted by GraphPad Prism 5.0 (San Diego, CA) and calculated the IC50.

NCI-H929 cells [4] = assay: Annexin V-FITC/PI apoptosis assay; format: cell-based; settings: for B1: necrotic cells / B2: late apoptosis / B3: live cells / B4: early apoptosis: 72 h; for apoptotic events: 72 h (early + late apoptosis)
Experimental: The IMiDs were reported to induce apoptosis through activation of caspase 8 in MM cells. Accordingly, the ability of the selected compound 10a to induce apoptosis in NCI-H929 cells was investigated using annexin V fluorescein isothiocyanate (FITC)/propidium iodide (PI) staining assay.
as §4

IKZF1 = target: T3, IKZF1 (Homo sapiens, UniProt Q13422+Q96SW2); assay: Immunoblot analysis of IKZF1 degradation in NCI-H929 cells; format: cell-based; settings: for IKZF1 degradation: 72 h, immunoblot
T3 construct: endogenous in cells; host or cells: NCI-H929
Experimental: as §5, §6

[5] = TNF-α level in LPS stimulated human PBMC, ELISA
[6] = NCI-H929, indicated concentrations
[7] = NCI-H929, 100 nM bortezomib in combination with compound 10a (10 µM)

T3 sequence (Q13422 whole entry): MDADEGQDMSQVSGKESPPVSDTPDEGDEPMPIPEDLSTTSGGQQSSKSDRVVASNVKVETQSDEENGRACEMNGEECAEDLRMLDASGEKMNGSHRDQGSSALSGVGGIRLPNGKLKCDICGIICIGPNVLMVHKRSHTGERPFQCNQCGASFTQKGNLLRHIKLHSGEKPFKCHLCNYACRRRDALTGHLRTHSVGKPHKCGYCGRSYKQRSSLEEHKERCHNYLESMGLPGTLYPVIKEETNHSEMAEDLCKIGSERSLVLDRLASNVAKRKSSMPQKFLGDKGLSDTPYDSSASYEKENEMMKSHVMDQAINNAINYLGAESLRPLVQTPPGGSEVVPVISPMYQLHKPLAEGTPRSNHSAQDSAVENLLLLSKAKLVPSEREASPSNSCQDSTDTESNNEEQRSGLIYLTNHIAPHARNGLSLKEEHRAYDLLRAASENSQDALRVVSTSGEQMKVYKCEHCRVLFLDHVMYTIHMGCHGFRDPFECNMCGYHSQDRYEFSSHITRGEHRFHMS
T3 sequence (Q96SW2 whole entry): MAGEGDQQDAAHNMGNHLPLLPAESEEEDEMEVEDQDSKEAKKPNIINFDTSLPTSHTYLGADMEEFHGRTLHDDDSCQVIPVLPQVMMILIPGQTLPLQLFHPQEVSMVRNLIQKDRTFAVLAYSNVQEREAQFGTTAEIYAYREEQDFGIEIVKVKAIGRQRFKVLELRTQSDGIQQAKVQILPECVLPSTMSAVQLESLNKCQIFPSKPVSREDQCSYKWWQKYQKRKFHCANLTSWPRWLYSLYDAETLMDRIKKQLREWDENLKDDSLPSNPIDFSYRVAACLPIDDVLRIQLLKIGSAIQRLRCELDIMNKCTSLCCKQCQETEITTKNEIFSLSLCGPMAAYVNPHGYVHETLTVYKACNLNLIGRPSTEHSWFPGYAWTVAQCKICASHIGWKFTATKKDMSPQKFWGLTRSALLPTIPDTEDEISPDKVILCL
T3 sequence (Q16531 whole entry partner): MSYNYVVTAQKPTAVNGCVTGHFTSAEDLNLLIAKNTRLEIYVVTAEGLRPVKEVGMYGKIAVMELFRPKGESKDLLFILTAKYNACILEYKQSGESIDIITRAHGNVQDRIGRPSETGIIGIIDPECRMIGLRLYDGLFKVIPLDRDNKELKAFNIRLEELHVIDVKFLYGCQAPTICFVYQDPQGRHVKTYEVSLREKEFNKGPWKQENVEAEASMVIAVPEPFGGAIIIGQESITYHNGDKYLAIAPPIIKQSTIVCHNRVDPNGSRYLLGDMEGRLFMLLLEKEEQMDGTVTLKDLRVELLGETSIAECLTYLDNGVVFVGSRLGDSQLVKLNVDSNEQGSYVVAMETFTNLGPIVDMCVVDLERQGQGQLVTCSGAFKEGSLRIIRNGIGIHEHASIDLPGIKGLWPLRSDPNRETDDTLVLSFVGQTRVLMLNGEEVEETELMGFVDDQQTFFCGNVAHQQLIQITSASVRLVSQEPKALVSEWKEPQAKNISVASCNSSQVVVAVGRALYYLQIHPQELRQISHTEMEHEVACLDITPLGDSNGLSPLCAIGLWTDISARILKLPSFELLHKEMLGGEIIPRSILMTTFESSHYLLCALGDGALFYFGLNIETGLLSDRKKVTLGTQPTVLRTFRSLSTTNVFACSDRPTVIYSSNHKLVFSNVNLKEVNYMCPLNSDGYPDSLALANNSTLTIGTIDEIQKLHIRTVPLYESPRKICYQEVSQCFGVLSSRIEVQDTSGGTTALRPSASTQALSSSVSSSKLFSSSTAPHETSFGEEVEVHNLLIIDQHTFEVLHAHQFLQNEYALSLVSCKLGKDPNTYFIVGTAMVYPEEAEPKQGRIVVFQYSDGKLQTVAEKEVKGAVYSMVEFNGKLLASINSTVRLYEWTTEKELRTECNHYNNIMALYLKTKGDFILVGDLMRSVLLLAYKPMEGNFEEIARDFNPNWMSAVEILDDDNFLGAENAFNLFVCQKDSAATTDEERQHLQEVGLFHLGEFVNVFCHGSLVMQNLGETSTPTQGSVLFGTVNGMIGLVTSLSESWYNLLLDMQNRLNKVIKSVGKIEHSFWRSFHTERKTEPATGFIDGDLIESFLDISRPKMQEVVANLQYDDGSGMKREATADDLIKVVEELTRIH
T1 sequence (Q9UKT9 whole entry): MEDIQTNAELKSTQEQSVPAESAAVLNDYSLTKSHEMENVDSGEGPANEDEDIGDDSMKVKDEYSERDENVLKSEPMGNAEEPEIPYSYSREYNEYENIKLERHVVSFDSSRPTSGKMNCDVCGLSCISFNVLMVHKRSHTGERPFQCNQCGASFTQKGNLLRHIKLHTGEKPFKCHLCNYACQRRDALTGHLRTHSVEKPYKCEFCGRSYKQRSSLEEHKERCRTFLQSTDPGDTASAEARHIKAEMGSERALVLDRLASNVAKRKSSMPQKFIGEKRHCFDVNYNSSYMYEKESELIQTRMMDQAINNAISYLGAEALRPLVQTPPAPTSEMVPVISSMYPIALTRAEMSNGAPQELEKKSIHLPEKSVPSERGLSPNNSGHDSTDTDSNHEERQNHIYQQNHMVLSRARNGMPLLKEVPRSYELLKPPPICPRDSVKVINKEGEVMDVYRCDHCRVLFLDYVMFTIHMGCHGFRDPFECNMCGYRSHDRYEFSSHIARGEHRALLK
T1 sequence (Q96SW2 whole entry): as the sequence (Q96SW2 whole entry) above
T1 sequence (Q16531 whole entry partner): as the sequence (Q16531 whole entry partner) above
T2 sequence (Q96SW2 whole entry): as the sequence (Q96SW2 whole entry) above
T2 sequence (Q16531 whole entry partner): as the sequence (Q16531 whole entry partner) above

IC50 (TNF-α; [5]) [µM] | IC50 (NCI-H929 cells [1]) [µM] | Compound | viability at 72 h, 20 µM (PBMC toxicity by CCK8) [%] | IC50 (U2932 cells) [µM] | also measured
> 50 | 32.2 ± 1.42 | O=C1CCC(N2C(=O)Cc3ccccc3C2=O)C(=O)N1 (stereo not shown) [Compound 3a, 2-(2,6-dioxopiperidin-3-yl)isoquinoline-1,3(2H,4H)-dione] | 99 | > 50 | 
43.8 ± 1.88 | 28.2 ± 0.92 | COc1ccc2c(c1)C(=O)N(C1CCC(=O)NC1=O)C(=O)C2 (stereo not shown) [Compound 3b, 2-(2,6-Dioxopiperidin-3-yl)-7-methoxyisoquinoline-1,3(2H,4H)-dione] | 98 | 36.4 ± 1.22 | 
> 50 | > 50 | COc1ccc2c(c1)C(=O)N(C1CCC(=O)NC1=O)C(=O)C2(C)C (stereo not shown) [Compound 3c, 2-(2,6-Dioxopiperidin-3-yl)-7-methoxy-4,4-dimethylisoquinoline-1,3(2H,4H)-dione] | 100 | > 50 | 
5.48 ± 1.04 | 9.26 ± 0.56 | O=C1CCC(N2C(=O)Cc3cccc([N+](=O)[O-])c3C2=O)C(=O)N1 (stereo not shown) [Compound 9a, 2-(2,6-dioxopiperidin-3-yl)-8-nitroisoquinoline-1,3(2H,4H)-dione] | 94 | 12.2 ± 0.58 | 
0.76 ± 0.08 | 2.25 ± 0.09 | Nc1cccc2c1C(=O)N(C1CCC(=O)NC1=O)C(=O)C2 (stereo not shown) [Compound 10a, 8-amino-2-(2,6-dioxopiperidin-3-yl)isoquinoline-1,3(2H,4H)-dione] | 94 | 5.86 ± 0.12 | cells in G0/G1 cell cycle (NCI-H929 cells [2]; NCI-H929, 5.0 µM): 42.9%; cell cycle arrest (NCI-H929 cells [2]): induce G0/G1 cell cycle arrest; toxicity to normal human cell line PBMC (PBMC; CCK8, 20 µM): nearly no toxicity; PBMC cell viability (%) (PBMC; CCK-8, 20.0 µM, relative to control cells, 20 µM): 99%; IKZF3 degradation (IKZF3; NCI-H929, 10 µM): completely degrade; IKZF3 degradation (IKZF3; [6]): induced the degradation; IC50 [3]: 4.83 µM; B1: necrotic cells (NCI-H929 cells [4]; NCI-H929, 1 μM): 0.1%; B2: late apoptosis (NCI-H929 cells [4]; NCI-H929, 1 μM): 15.6%; B3: live cells (NCI-H929 cells [4]; NCI-H929, 1 μM): 70.4%; B4: early apoptosis (NCI-H929 cells [4]; NCI-H929, 1 μM): 13.9%; apoptotic events (NCI-H929 cells [4]; NCI-H929, 1 µM): 29.5%; B1: necrotic cells (NCI-H929 cells [4]; NCI-H929, 5 μM): 0.2%; B2: late apoptosis (NCI-H929 cells [4]; NCI-H929, 5 μM): 21.3%; B3: live cells (NCI-H929 cells [4]; NCI-H929, 5 μM): 65.1%; B4: early apoptosis (NCI-H929 cells [4]; NCI-H929, 5 μM): 13.3%; apoptotic events (NCI-H929 cells [4]; NCI-H929, 5 µM): 34.6%; IKZF1 degradation (IKZF1; NCI-H929, 10 µM): completely degrade; IKZF1 degradation (IKZF1; [6]): induced the degradation
21.3 ± 1.26 | 16.3 ± 0.56 | Nc1ccc2c(c1)C(=O)N(C1CCC(=O)NC1=O)C(=O)C2 (stereo not shown) [Compound 10b, 7-Amino-2-(2,6-dioxopiperidin-3-yl)isoquinoline-1,3(2H,4H)-dione] | 98 | 20.6 ± 0.82 | 
38.5 ± 1.38 | 18.7 ± 0.83 | Nc1ccc2c(c1)CC(=O)N(C1CCC(=O)NC1=O)C2=O (stereo not shown) [Compound 10c, 6-Amino-2–(2,6-dioxopiperidin-3-yl)isoquinoline-1,3(2H,4H)-dione] | 100 | 26.3 ± 0.76 | 
> 50 | > 50 | Nc1cccc2c1CC(=O)N(C1CCC(=O)NC1=O)C2=O (stereo not shown) [Compound 10d, 5-Amino-2–(2,6-dioxopiperidin-3-yl)isoquinoline-1,3(2H,4H)-dione] | 99 | > 50 | 
> 50 | > 50 | CC1(C)C(=O)N(C2CCC(=O)NC2=O)C(=O)c2c(N)cccc21 (stereo not shown) [Compound 12a, 8-Amino-2–(2,6-dioxopiperidin-3-yl)-4,4-dimethylisoquinoline-1,3(2H,4H)-dione] | 100 | > 50 | 
> 50 | > 50 | Nc1cccc2c1C(=O)N(C1CCC(=O)NC1=O)C(=O)C21CC1 (stereo not shown) [Compound 12b, 8′-Amino-2′-(2,6-dioxopiperidin-3-yl)-1′H-spiro[cyclopropane-1,4′-isoquinoline]-1′,3′(2′H)-dione] | 100 | > 50 | 
 | 1.12 ± 0.06 | Nc1cccc2c1CN(C1CCC(=O)NC1=O)C2=O (stereo not shown) [Lenalidomide, reference compound] | 86 | 3.24 ± 0.11 | IC50 (TNF-α; Homo sapiens, PBMC): 0.13 ± 0.02 µM; cell cycle arrest (NCI-H929 cells [2]): induce G0/G1 cell cycle arrest; B1: necrotic cells (NCI-H929 cells [4]; NCI-H929, 1 μM): 0.2%; B2: late apoptosis (NCI-H929 cells [4]; NCI-H929, 1 μM): 18.1%; B3: live cells (NCI-H929 cells [4]; NCI-H929, 1 μM): 68.6%; B4: early apoptosis (NCI-H929 cells [4]; NCI-H929, 1 μM): 13.1%; apoptotic events (NCI-H929 cells [4]; NCI-H929, 1 µM): 31.2%; B1: necrotic cells (NCI-H929 cells [4]; NCI-H929, 5 μM): 0.1%; B2: late apoptosis (NCI-H929 cells [4]; NCI-H929, 5 μM): 20.8%; B3: live cells (NCI-H929 cells [4]; NCI-H929, 5 μM): 56.0%; B4: early apoptosis (NCI-H929 cells [4]; NCI-H929, 5 μM): 23.1%; apoptotic events (NCI-H929 cells [4]; NCI-H929, 5 µM): 43.9%
 |  | CC(C)C[C@H](NC(=O)[C@H](Cc1ccccc1)NC(=O)c1cnccn1)B(O)O [bortezomib, reference compound] |  |  | effect on IKZF3 degradation induced by compound 10a (IKZF3; [7]): can block the degradation; effect on IKZF1 degradation induced by compound 10a (IKZF1; [7]): can block the degradation
